Reference: patent US20240400596A1, “PLATINUM-BASED PHOTOINITIATOR AND PHOTOCROSSLINKER, THEIR USE FOR ADDUCT FORMATION” (City University of Hong Kong, priority 2023, published 2024)

Assays:
[1] = Photolysis of Pt complexes in water under UV, by RP-HPLC; type: physicochemical; settings: 1 mM in water, 365 nm, 9.8 mW/cm^2, 10 min
Description: The photolysis of Pt complexes in test tubes was examined by reversed-phase high performance liquid chromatography (RP-HPLC). 1 mM Pt complexes were dissolved in water. Then the mixed solution was irradiated with UV light (365 nm, 9.8 mW/cm^2) for 10 min at room temperature, and the solution was examined by HPLC. The percentage of remained Pt complexes was obtained from the ratio of the peak area of Pt complexes upon irradiation to that of the intact Pt complexes.

[2] = Dark stability of cisPt(IV)-1, by HPLC; type: physicochemical; settings: in the dark for about 30 min, free or mixed with radical spin traps
Description: 1 mM cisPt(IV)-1 (Pt(IV) complex of Formula (IIa)) and cisplatin in water was mixed with 1 or 10 mM DMPO or TEMPO. The mixed solution was irradiated with UV or kept in the dark for 10 min. The solution was analyzed by HPLC. The Pt(I) adduct products were characterized by ESI-HRMS, and the acetate radical adduct was separated and characterized by proton NMR. For the study of photolysis rate, the solution was irradiated with UV (365 nm, 9.8 mW/cm^2) for 0.5, 1, 2, 3, 4, 5 and 10 min, with or without the radical spin trap and analyzed by HPLC. For the study of dark stability, the solution was incubated at room temperature in the dark for 30 min before examined by HPLC.

Compound | percentage of intact Pt complex remaining upon irradiation [1] | stability in the dark [2]
O=C1[O][Pt]2([NH][C@@H]3CCCC[C@H]3[NH]2)[O]C1=O [oxaliplatin] | 99% | –
CC(=O)[O][Pt]([NH2])([NH2])([Cl])([Cl])[O]C(C)=O [cisPt(IV)-1] | – | remained intact
